Results from the NIST ThermoML archive (doi:10.1021/acs.jced.5b00582).
± gives the expanded uncertainty stated by the source.

Assays:
[1] = Liquid; for mass density: 298.15 K, 101.33 kPa, Pycnometric method; for vapor or sublimation pressure: Ebulliometric method (Recirculating still)
[2] = refractive index (Na D-line) (dimensionless); conditions: 298.15 K; 101.33 kPa; Liquid; Standard Abbe refractometry

| Compound | mass density [1] | vapor or sublimation pressure ([1]; 397.48 K) | refractive index [2] | vapor or sublimation pressure ([1]; 357.71 K) | vapor or sublimation pressure ([1]; 352.76 K) | vapor or sublimation pressure ([1]; 385.12 K) |
| --- | --- | --- | --- | --- | --- | --- |
| COCCO [2-methoxyethan-1-ol] | 960.1 ± 0.3 kg/m3 | 101.3 ± 0.86 kPa | 1.4002 ± 0.0004 | – | – | – |
| COCCOC [1,2-dimethoxyethane] | 860.4 ± 0.3 kg/m3 | – | 1.378 ± 0.0004 | 101.3 ± 0.86 kPa | – | – |
| CCC(C)=O [butanone] | 799.7 ± 0.3 kg/m3 | – | 1.3761 ± 0.0004 | – | 101.3 ± 0.86 kPa | – |
| CCC(C)OC(C)=O (configuration not stated) [1-methylpropyl ethanoate] | 863.8 ± 0.3 kg/m3 | – | 1.3872 ± 0.0004 | – | – | 101.3 ± 0.86 kPa |
